The NIST ThermoML archive (doi:10.1021/acs.jced.6b00673)
Where “and” joins values, the source holds several entries; their conditions need not be identical. Equal entries are not always repeated. Numbers after ± are expanded uncertainties.

Conditions: Liquid, Closed cell (Static) method

F/C=C/C(F)(F)F [trans-1,3,3,3-tetrafluoropropene]
Conditions	vapor or sublimation pressure
235.01 K	40.19 ± 1.2 kPa
235.17 K	40.58 ± 1.2 kPa
239.05 K	49.6 ± 1.2 kPa
239.07 K	49.6 ± 1.2 kPa and 49.61 ± 1.2 kPa
242.03 K	57.54 ± 1.2 kPa
242.04 K	57.54 ± 1.2 kPa
245.15 K	66.85 ± 1.2 kPa
245.16 K	66.94 ± 1.2 kPa and 66.9 ± 1.2 kPa
247.99 K	76.45 ± 1.2 kPa
248.02 K	76.52 ± 1.2 kPa
249.38 K	81.49 ± 1.2 kPa
250.68 K	86.48 ± 1.2 kPa
250.72 K	86.57 ± 1.2 kPa
252.24 K	92.69 ± 1.2 kPa and 92.75 ± 1.2 kPa
252.58 K	94.2 ± 1.2 kPa
256.25 K	110.47 ± 1.2 kPa
258.72 K	122.66 ± 1.2 kPa
258.74 K	122.75 ± 1.2 kPa
262.01 K	140.52 ± 1.2 kPa
264.78 K	157.04 ± 1.2 kPa
268.27 K	179.98 ± 1.2 kPa
271.72 K	205.14 ± 1.2 kPa
274.51 K	227.45 ± 1.2 kPa
277.43 K	252.66 ± 1.2 kPa
280.73 K	283.77 ± 1.3 kPa
284.07 K	318.06 ± 1.3 kPa
287.25 K	353.65 ± 1.3 kPa
290.51 K	393.03 ± 1.3 kPa
293.33 K	429.86 ± 1.4 kPa
296.67 K	476.7 ± 1.4 kPa
299.73 K	523.05 ± 1.4 kPa
302.71 K	571.25 ± 1.4 kPa
303.98 K	592.72 ± 1.5 kPa
306.42 K	635.82 ± 1.5 kPa and 635.84 ± 1.5 kPa
308.5 K	674.57 ± 1.5 kPa
311.91 K	741.32 ± 1.6 kPa and 741.51 ± 1.6 kPa
314.3 K	791.29 ± 1.6 kPa
314.31 K	791.42 ± 1.6 kPa
316.04 K	829.03 ± 1.7 kPa and 829.14 ± 1.7 kPa
318.53 K	885.61 ± 1.7 kPa
319.38 K	905.41 ± 1.8 kPa and 905.49 ± 1.8 kPa
320.96 K	943.34 ± 1.8 kPa
323.48 K	1006.1 ± 1.9 kPa
325.23 K	1051.7 ± 1.9 kPa
327.75 K	1119.9 ± 2 kPa
329.78 K	1177.5 ± 2.1 kPa
332.09 K	1245.2 ± 2.1 kPa
334.3 K	1312.8 ± 2.2 kPa
336.51 K	1383.2 ± 2.3 kPa
338.43 K	1446.6 ± 2.4 kPa
340.44 K	1515 ± 2.5 kPa
342.65 K	1593.5 ± 2.6 kPa
344.94 K	1678 ± 2.7 kPa
347.25 K	1766.4 ± 2.8 kPa
349.48 K	1855 ± 2.9 kPa
351.21 K	1926.4 ± 3 kPa
353.31 K	2015.3 ± 3.1 kPa
355.52 K	2112.5 ± 3.3 kPa
358.52 K	2250 ± 3.5 kPa
360.61 K	2349.9 ± 3.7 kPa
362.53 K	2444.8 ± 3.8 kPa
364.71 K	2556.2 ± 4 kPa
366.86 K	2669.6 ± 4.2 kPa
367.85 K	2724.3 ± 4.2 kPa
368.95 K	2784.2 ± 4.3 kPa
369.85 K	2835.5 ± 4.4 kPa
371.01 K	2900.6 ± 4.5 kPa
371.91 K	2953.8 ± 4.6 kPa
372.81 K	3005.5 ± 4.7 kPa
374.07 K	3082.4 ± 4.8 kPa
374.9 K	3131.7 ± 4.9 kPa
376.04 K	3203.1 ± 5 kPa
377.04 K	3265.4 ± 5.1 kPa
377.94 K	3323.5 ± 5.2 kPa
378.57 K	3364.9 ± 5.2 kPa
379.16 K	3402.3 ± 5.3 kPa
379.51 K	3425.9 ± 5.3 kPa
379.87 K	3450.3 ± 5.4 kPa
380.02 K	3459.7 ± 5.4 kPa
380.51 K	3493.5 ± 5.4 kPa
